In PubChem BioAssay AID1417 (Emory University Molecular Libraries Screening Center, 2008):

Target: Induced myeloid leukemia cell differentiation protein Mcl-1 (Homo sapiens) (UniProt Q07820)
Assay: Mcl-1 Noxa peptide disruption concentration-response – biochemical, TR-FRET, dose response (AID 1417)
Details: Mcl-1/Noxa peptide interaction, cell-free TR-FRET (terbium/rhodamine), 2 h; measured here: absolute IC50

Chain of Induced myeloid leukemia cell differentiation protein Mcl-1 (Homo sapiens) (Q07820 whole entry, looked up): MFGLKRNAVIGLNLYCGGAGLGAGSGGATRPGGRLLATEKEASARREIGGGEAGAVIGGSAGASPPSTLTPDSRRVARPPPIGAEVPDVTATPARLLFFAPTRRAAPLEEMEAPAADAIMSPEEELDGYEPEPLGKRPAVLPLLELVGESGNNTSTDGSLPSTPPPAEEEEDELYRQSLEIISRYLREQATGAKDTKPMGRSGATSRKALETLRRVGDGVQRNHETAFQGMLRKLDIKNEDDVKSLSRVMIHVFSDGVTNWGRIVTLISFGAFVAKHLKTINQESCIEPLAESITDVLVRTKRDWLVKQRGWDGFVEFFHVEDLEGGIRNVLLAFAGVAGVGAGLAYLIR

SMILES	IC50 [nM]
COc1ccc2nc(N3C(=O)/C(=C/c4ccc(Cl)cc4)NC3=S)sc2c1	1430
CCOc1ccc(C2C3=C(Nc4nc(N)[nH]c(=O)c42)c2ccccc2C3=O)cc1 (configuration not stated)	23300
O=C(Nc1ccc([N+](=O)[O-])cc1)Nc1ccc(N2CCOCC2)c2nonc12	4630
Cc1cc2nc(-c3ccc(SCC(=O)N4CCN(C(=O)c5ccco5)CC4)nc3)[nH]c2cc1C	4160
O=C(O)c1ccc2nc(-c3ccco3)c(-c3ccco3)nc2c1	1630
O=C(O)c1cc(-c2ccc(/C=C3\NC(=O)N(c4ccccc4)C3=O)o2)ccc1Cl	> 54000
C=CCOC(=O)/C(=C\c1ccccc1)NC(=O)c1ccc(C)cc1	> 54000
COc1ccccc1/C=c1\sc2nc(-c3ccco3)nn2c1=O	8180
CCC1CCCCN1S(=O)(=O)c1ccc(S(=O)(=O)N(Cc2ccccn2)CC2CCCO2)cc1 (configuration not stated)	> 54000
O=[N+]([O-])c1ccccc1/C=C/C=N/n1c(-c2ccccc2)n[nH]c1=S	> 54000
O=C(O)c1ccc(NS(=O)(=O)c2ccc3c(c2)C2C=CCC2C(c2ccccc2F)N3)cc1 (configuration not stated)	1270
Cc1ccc(S(=O)(=O)C(CCC(=O)N2CCOCC2)S(=O)(=O)c2ccc(C)cc2)cc1	> 54000
COc1ccccc1Nc1nc(-c2sc(NC(=O)c3ccc([N+](=O)[O-])cc3)nc2C)cs1	< 400
O=C(O)c1ccccc1N/N=C/c1c(Sc2nnnn2-c2ccccc2)nc2ccccn2c1=O	< 400
CCN(CC)c1ccc(NC(=O)CCCOc2cccc(C)c2)cc1	> 54000
COc1ccc2c3c(cccc13)N(C)N=C2C	931
CCOC(=O)CSc1nc(N)c(C(=O)Nc2ccc(N(C)C)cc2)s1	523
O=C(O)CCCCCN1C(=O)/C(=C\c2ccc(-c3ccc(Cl)cc3)o2)SC1=S	1360
CS(=O)(=O)C1=NSC2=NC(=O)/C(=C\c3cccn3-c3ccc(Cl)cc3)C(=N)N21	3740
Cc1cc(/C=N/n2c(COc3ccccc3C)nc3ccccc3c2=O)c(O)c([N+](=O)[O-])c1	4860
O=C(Nc1ccc2nc(-c3ccco3)c(-c3ccco3)nc2c1)NC1CC1	1330
Cc1ccc2c(c1Cl)NC(C(=O)O)C1CC(Sc3ccccc3[N+](=O)[O-])C(Cl)C21 (configuration not stated)	2520
Cc1ccc(/C=C2\C(=O)NC(=S)N(c3ccccc3F)C2=O)s1	1860
O=C(Nc1nccs1)c1cc(-c2ccco2)nc2ccccc12	1400
Cn1c(=O)c2c(nc(NCc3ccco3)n2CC(O)COc2ccccc2)n(C)c1=O (configuration not stated)	> 54000
C=CCN1C(=O)/C(=C2/C(=O)N(CC(=O)O)c3ccccc32)S/C1=N/c1nccs1	< 400

SMILES	IC50 [nM]
N#Cc1c(NC(=O)c2cccc(S(=O)(=O)Nc3ccc(C(=O)O)cc3)c2)sc2c1CCCC2	9510
CS(=O)(=O)c1ccc2c(c1)SC1=NC(=O)/C(=C/c3ccco3)C(=N)N12	2190
CCOc1ccc(/C=C/[N+](=O)[O-])c2ccccc12	1700
[O-][n+]1onc2c1CCC(=N/O)/C2=N\Nc1ccccc1	1060
O=[N+]([O-])c1cc(Cl)cc(/C=N/NC(=S)Nc2ccc(S(=O)(=O)N3CCOCC3)cc2)c1O	< 400
CCOC(=O)c1c(C)oc2c1c(CN1CCN(C(=O)OCC)CC1)c(O)c1ccccc12	< 400
CCN(CC)Cc1cc(O)c(CN(CC)CC)cc1O	< 400
O=C1NC(=S)N(c2ccccc2F)C(=O)/C1=C\c1cccs1	3770
CCOC(=O)C1CCN(c2nc(N)c3c(N)nc(SCC(=O)O)cc3c2C#N)CC1	< 400
CCC1(C(=O)OC)CCc2c(cc(OC)c3ccccc23)C1=O (configuration not stated)	48100
COc1cnn(-c2ccc(Br)cc2)c(=O)c1SCc1ccccc1	> 54000
COc1ccc(NC(C)C(=O)Nc2ccc(C#N)cc2)cc1Cl (configuration not stated)	> 54000
CCCCCn1c(N)c(-c2nc3ccccc3o2)c2c([N+](=O)[O-])nn(CC)c(=O)c21	2800
Cc1oc(-c2ccc(Cl)cc2)cc1-c1nn2c(-c3ccoc3C)nnc2s1	> 54000
O=C(Nc1ccc2nc(-c3ccc4nc[nH]c4c3)[nH]c2c1)c1cccs1	2700
O=C(Nc1ccc(N2CCOCC2)cc1)Nc1ccc(Cl)c(Cl)c1	> 54000
CC1=C(SCCC#N)S/C(=C2\SC(C)=C(SCCC#N)S2)S1	2710
CCc1c(C)[nH]c2ccc(OC)cc2c1=S	< 400
N#Cc1c2nc3ccccc3nc2n2cc(NC(=O)c3ccc(F)cc3)ccc12	< 400
CC1=C(C#N)C(=O)NC(=O)/C1=C\c1ccc(-c2ccc(C)cc2[N+](=O)[O-])o1	< 400
NC(=S)n1[nH]c(-c2ccc([N+](=O)[O-])cc2)c(N=Nc2ccccc2[N+](=O)[O-])c1=O	< 400
C/C(=N\Nc1ccc(C(=O)O)cc1)c1ccc2c(c1)Nc1ccccc1S2	< 400
O=C(NCCO)Nc1ccc2nc(-c3ccco3)c(-c3ccco3)nc2c1	< 400
O=[N+]([O-])c1cc(Br)c(O)c(/C=N/Nc2nc3ccccc3s2)c1	< 400
O=C1NC(=O)C(=Cc2ccc(-c3cc(Cl)ccc3[N+](=O)[O-])o2)C(=O)N1	3250
Oc1cc2c(cc1C(c1ccc(Cl)c(Cl)c1)N1CCCC1)OCO2 (configuration not stated)	> 54000
